Test results published in patent US8822449B2, “Substituted aminoindanes and analogs thereof, and the pharmaceutical use thereof” (Sanofi, priority 2008, dated 2014).
pIC50: −log10 of the molar value.

The compounds below were run against T1, sodium-proton exchanger of subtype 3 (NHE3) (Homo sapiens, UniProt P48764) (assay: Recovery of intracellular pH (pHi) after acidification in LAP1 cells stably expressing NHE3 (BCECF fluorescence, FLIPR)). Conditions: LAP1 cells stably expressing NHE3; pH recovery after acidification; range 1 is % inhibition at 10 μM; read-out: Activity range (inhibitory effect on NHE3).
T1 construct: expressed in transfected cells
T1 sequence (P48764 26-834): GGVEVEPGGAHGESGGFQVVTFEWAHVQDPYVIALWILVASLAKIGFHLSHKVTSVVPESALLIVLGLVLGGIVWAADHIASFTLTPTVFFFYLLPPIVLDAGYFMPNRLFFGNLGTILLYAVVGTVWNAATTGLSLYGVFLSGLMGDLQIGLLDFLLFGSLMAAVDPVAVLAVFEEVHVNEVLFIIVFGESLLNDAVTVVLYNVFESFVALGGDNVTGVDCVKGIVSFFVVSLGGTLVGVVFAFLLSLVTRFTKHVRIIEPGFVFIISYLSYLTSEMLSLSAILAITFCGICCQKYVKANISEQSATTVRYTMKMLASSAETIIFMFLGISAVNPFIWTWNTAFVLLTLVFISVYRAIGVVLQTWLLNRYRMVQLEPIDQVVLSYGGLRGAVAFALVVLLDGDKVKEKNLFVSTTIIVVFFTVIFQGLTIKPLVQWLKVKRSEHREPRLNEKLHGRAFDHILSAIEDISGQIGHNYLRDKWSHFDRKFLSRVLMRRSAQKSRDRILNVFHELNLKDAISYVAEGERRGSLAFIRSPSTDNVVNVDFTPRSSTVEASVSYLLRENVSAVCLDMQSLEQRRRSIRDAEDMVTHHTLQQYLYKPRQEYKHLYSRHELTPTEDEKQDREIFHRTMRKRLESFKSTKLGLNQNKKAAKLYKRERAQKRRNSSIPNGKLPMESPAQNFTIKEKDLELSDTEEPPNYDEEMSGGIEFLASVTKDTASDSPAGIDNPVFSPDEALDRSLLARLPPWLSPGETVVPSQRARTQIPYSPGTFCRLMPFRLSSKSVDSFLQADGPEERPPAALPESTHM
Type: cell-based
Compound `CN1CC(=O)N(c2ccc(Cl)c(O[C@H]3c4cc(Cl)cc(F)c4C[C@@H]3N3CC[C@@H](O)C3)c2)C1=O` [Example 435, 3-{4-chloro-3-[(1S,2S)-6-chloro-4-fluoro-2-((R)-3-hydroxypyrrolidin-1-yl)indan-1-yloxy]phenyl}-1-methylimidazolidine-2,4-dione] has a pIC50 of 5.00 to 6.00. Compound `Clc1ccc2cccc(O[C@H]3c4ccccc4CC[C@@H]3N3CCOCC3)c2n1` (racemic) [Example 395, 2-chloro-8-(rac-trans-(1,2)-2-morpholin-4-yl-1,2,3,4-tetrahydronaphthalen-1-yloxy)quinoline] has an inhibition at 10 µM of 20 to 50%. With `CS(=O)(=O)c1ccc(O[C@H]2c3cc(Cl)cc(Cl)c3C[C@@H]2N2CCNCC2)cc1` [Example 308, 1-[trans-(1S,2S)-4,6-dichloro-1-(4-methanesulfonylphenoxy)indan-2-yl]piperazine] the pIC50 was greater than 6.00. With `CO[C@@H]1CCN(C2Cc3ccccc3C2Oc2ccc(S(N)(=O)=O)c(Cl)c2Cl)C1` (mixture of isomers) [Example 359, 2,3-dichloro-4-[rac-trans-(1,2)-2-((R)-3-methoxypyrrolidin-1-yl)indan-1-yloxy]benzenesulfonamide] the pIC50 was 5.00 to 6.00. `Brc1ccccc1O[C@@H]1c2ccccc2C[C@H]1N1C[C@H]2CNC[C@H]2C1` (racemic) [Example 11, 2-[rac-trans-(1,2)-1-(2-bromophenoxy)indan-2-yl]octahydropyrrolo[3,4-c]pyrrole] gave a pIC50 of 5.00 to 6.00. In the case of `O=S(=O)(NCCC(F)(F)F)c1ccc(O[C@H]2c3ccccc3C[C@@H]2N2CCCC2)cc1` (racemic) [Example 470, 4-(rac-trans-(1,2)-2-pyrrolidin-1-ylindan-1-yloxy)-N-(3,3,3-trifluoropropyl)benzenesulfonamide], the pIC50 was 5.00 to 6.00. `N[C@H]1CCCN([C@H]2CCc3ccccc3[C@@H]2Oc2ccnc(Cl)c2)C1` (racemic) [Example 153, (S)-1-[rac-trans-(1,2)-1-(2-chloropyridin-4-yloxy)-1,2,3,4-tetrahydronaphthalen-2-yl]piperidin-3-ylamine] showed an inhibition at 10 µM of 20 to 50%. `COCCc1ccc(O[C@@H]2c3ccccc3C[C@H]2N2C[C@H]3CNC[C@H]3C2)cc1` (racemic) [Example 19, 2-{rac-trans-(1,2)-1-[4-(2-methoxyethyl)phenoxy]indan-2-yl}octahydropyrrolo[3,4-c]pyrrole] was tested, and the pIC50 was 5.00 to 6.00. `N[C@@H]1CCCN([C@@H]2Cc3ccccc3[C@H]2Oc2ccncc2)C1` (racemic) [Example 86, (R)-1-[rac-trans-(1,2)-1-(pyridin-4-yloxy)indan-2-yl]piperidin-3-ylamine] showed a pIC50 of 5.00 to 6.00. With `NCC1CCN([C@@H]2Cc3ccccc3[C@H]2Oc2ccnc3ccccc23)CC1` (racemic) [Example 622, C-{1-[rac-trans-(1,2)-1-(quinolin-4-yloxy)indan-2-yl]piperidin-4-yl}methylamine] the pIC50 was 5.00 to 6.00. `O=C(O)COC(=O)Nc1ccc(O[C@H]2c3cc(Cl)cc(Cl)c3C[C@@H]2N2CC[C@@H](O)C2)c(Cl)c1` [Example 236, {3-chloro-4-[(1S,2S)-4,6-dichloro-2-((R)-3-hydroxypyrrolidin-1-yl)indan-1-yloxy]phenylcarbamoyloxy}acetic acid] gave a pIC50 greater than 6.00. `N[C@H]1CCCN([C@H]2CCc3ccccc3[C@@H]2Oc2ccc(-n3cncn3)cc2)C1` (racemic) [Example 171, (S)-1-[rac-trans-(1,2)-1-(4-[1,2,4]triazol-1-ylphenoxy)-1,2,3,4-tetrahydronaphthalen-2-yl]piperidin-3-ylamine] gave a pIC50 of 5.00 to 6.00. `Cc1nnc(C)n1-c1ccc(O[C@H]2c3cc(Cl)cc(Cl)c3C[C@@H]2N2CCS(=O)(=O)CC2)c(F)c1` [Example 565, 4-{trans-(1S,2S)-4,6-dichloro-1-[4-(3,5-dimethyl-[1,2,4]triazol-4-yl)-2-fluorophenoxy]indan-2-yl}thiomorpholine 1,1-dioxide] was tested, and the pIC50 was greater than 6.00. Compound `NS(=O)(=O)c1ccc(O[C@H]2c3cc(Cl)cc(F)c3C[C@@H]2NC2CCCC2)c(F)c1` [Example 750, 4-(trans-(1S,2S)-6-Chloro-2-cyclopentylamino-4-fluoro-indan-1-yloxy)-3-fluoro-benzenesulfonamide] has a pIC50 of 5.00 to 6.00.
